Test results as given in the NIST ThermoML archive (doi:10.1021/je050462y).
± gives the expanded uncertainty stated by the source.

Assays:
[1] = 101.33 kPa, Liquid
[2] = wn = mass fraction of the nth substance listed; conditions: 101 kPa, Liquid; for viscosity: Capillary tube (Ostwald / Ubbelohde) method, w1 = 0.5; for mass density: w1 = 0.3

SMILES	mass density ([1]; 313.15 K)	mass density ([1]; 323.15 K)	mass density ([1]; 333.15 K)	viscosity ([2]; 303.15 K)	viscosity ([2]; 313.15 K)	mass density ([2]; 313.15 K)	viscosity ([2]; 323.15 K)	mass density ([2]; 323.15 K)	viscosity ([2]; 333.15 K)	mass density ([2]; 333.15 K)
CN(CCO)CCO [N-methyldiethanolamine]	1025 ± 0.6 kg/m3	1017.4 ± 0.6 kg/m3	1009.6 ± 0.6 kg/m3							
CN(CCO)CCO [N-methyldiethanolamine] + O				7.39 ± 0.07 mPa·s	5.08 ± 0.05 mPa·s	1017.1 ± 0.6 kg/m3	3.62 ± 0.03 mPa·s	1011.5 ± 0.6 kg/m3	2.72 ± 0.03 mPa·s	1004.1 ± 0.6 kg/m3
OCCNCCO [diethanolamine] + O						1026 ± 0.5 kg/m3		1021.3 ± 0.5 kg/m3		1014.4 ± 0.4 kg/m3

Continued, in another order:

mass density ([1]; 313.15 K)	mass density ([1]; 323.15 K)	mass density ([1]; 333.15 K)	SMILES	viscosity ([2]; 303.15 K)	viscosity ([2]; 313.15 K)	mass density ([2]; 313.15 K)	viscosity ([2]; 323.15 K)	mass density ([2]; 323.15 K)	viscosity ([2]; 333.15 K)	mass density ([2]; 333.15 K)
917.2 ± 0.6 kg/m3	909.2 ± 0.6 kg/m3	900.7 ± 0.6 kg/m3	CC(C)(N)CO [2-amino-2-methylpropan-1-ol]							
1084.7 ± 0.3 kg/m3	1077.4 ± 0.3 kg/m3	1070.3 ± 0.3 kg/m3	OCCNCCO [diethanolamine]							
